These are literature values, as cited in patent US20050089581A1, “Magnesium-containing compositions and methods for enhancing dehydroepiandrosterone levels” (priority 2003, published 2005).

For one series, the system named is platelet aggregation. The following applies: second week, 300 mg DHEA per day orally.
Series [1] has as its system human coxsackievirus B4 strain.
For series [2] the following is noted: second week, 300 mg DHEA per day orally.
For series [3] the following is noted: administration of DHEA, its esters, or salts thereof; W. Regelson et al.
A further series concerns DHEA levels. Particulars: oral administration.

In the case of `C[C@]12CCC(O)CC1=CC[C@@H]1[C@@H]2CC[C@]2(C)C(=O)CC[C@@H]12` (stereo partly shown) [DHEA, 3-hydroxyandrost-5-en-17-one], in the series on platelet aggregation, the “subjects with slower rate of platelet aggregation and need for higher arachidonic acid concentration to initiate aggregation” value is reported as “Four of the five test subjects”. The mortality (usually the share of the test organisms that died) in series [1] (infection with 100,000 plaque forming units/animal, about 90% mortality in infected animals without treatment) is listed as 37%. Besides, the “elevation in the number of antibody forming cells” value in series [1] (within the animal, DHEA administered) is 80%. The “mean serum DHEA-S level” value in series [2] (DHEA group, baseline 316.2, placebo 260.5+/−56.7) is 1451.9 ± 56.7 µg/dL. In addition, the “mean serum DHEA” value in series [2] (treated group, baseline 5.83+/−3.9, placebo 5.58+/−4.1) was 28.7 ± 13.9 ng/mL. The side effects entry in series [3] was “mild androgenic effects and hirsutism”.

In the case of magnesium taurate, the “effect on DHEA levels” value in the series with DHEA levels is on record as “does not increase DHEA levels”.
